Assays:
[1] = molecular target: T1, Adrenergic receptor alpha-1 (Rattus norvegicus, UniProt P15823+P23944+P43140); test: Displacement of [3H]prazosin from rat cerebral cortex adrenergic receptor alpha1 by liquid scintillation counting method
T1 sequence (P15823 whole entry): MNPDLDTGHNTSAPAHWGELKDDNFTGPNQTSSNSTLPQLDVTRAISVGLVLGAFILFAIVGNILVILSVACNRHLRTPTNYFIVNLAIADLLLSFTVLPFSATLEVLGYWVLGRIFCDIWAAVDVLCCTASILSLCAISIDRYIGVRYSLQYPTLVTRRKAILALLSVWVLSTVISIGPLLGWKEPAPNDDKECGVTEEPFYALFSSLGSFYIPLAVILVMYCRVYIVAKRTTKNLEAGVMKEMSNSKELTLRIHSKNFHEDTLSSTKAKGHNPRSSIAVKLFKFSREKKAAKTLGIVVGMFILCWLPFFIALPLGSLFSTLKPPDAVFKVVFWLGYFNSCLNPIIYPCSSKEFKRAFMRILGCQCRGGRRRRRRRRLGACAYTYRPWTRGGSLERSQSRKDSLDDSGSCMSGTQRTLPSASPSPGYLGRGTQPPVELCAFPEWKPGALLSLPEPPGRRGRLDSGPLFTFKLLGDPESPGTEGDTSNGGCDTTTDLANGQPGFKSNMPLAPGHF
T1 sequence (P23944 whole entry): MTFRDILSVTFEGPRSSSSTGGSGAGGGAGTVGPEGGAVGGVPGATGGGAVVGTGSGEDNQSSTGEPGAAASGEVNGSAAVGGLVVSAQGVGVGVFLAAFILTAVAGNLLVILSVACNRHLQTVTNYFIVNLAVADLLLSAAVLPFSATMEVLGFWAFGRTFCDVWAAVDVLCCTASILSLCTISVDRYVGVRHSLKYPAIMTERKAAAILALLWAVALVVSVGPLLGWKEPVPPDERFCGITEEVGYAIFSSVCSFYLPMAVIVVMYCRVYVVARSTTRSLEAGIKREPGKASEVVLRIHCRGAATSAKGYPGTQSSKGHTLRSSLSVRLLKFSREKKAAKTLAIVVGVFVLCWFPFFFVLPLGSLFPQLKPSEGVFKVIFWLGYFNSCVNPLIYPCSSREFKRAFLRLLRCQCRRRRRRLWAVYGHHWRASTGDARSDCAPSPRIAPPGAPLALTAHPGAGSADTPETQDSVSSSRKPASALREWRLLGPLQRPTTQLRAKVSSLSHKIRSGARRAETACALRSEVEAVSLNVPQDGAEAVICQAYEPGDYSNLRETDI
T1 sequence (P43140 whole entry): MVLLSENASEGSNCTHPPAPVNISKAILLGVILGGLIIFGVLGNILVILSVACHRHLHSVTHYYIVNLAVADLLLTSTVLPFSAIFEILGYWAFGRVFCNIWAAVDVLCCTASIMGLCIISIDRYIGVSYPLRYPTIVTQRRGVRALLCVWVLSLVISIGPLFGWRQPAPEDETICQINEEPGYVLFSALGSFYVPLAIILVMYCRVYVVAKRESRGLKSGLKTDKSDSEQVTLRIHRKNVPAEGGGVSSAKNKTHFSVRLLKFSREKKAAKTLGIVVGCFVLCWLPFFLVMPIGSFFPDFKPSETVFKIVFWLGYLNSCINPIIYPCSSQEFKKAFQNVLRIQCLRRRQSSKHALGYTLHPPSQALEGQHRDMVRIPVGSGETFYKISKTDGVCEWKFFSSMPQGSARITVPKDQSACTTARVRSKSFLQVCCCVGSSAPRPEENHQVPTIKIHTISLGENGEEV

[2] = molecular target: T2, 5-hydroxytryptamine receptor 2A (Homo sapiens, UniProt P28223); test: Binding affinity to 5-HT2A receptor (unknown origin)
[3] = molecular target: D(2) dopamine receptor (Homo sapiens, UniProt P14416); test: Binding affinity to D2 receptor (unknown origin)
[4] = molecular target: T3, 5-hydroxytryptamine receptor 1A (Rattus norvegicus, UniProt P19327); test: Displacement of [3H]8-OH-DPAT from Wistar rat 5-HT1A receptor after 20 mins by liquid scintillation counting method
T3 sequence (P19327 whole entry): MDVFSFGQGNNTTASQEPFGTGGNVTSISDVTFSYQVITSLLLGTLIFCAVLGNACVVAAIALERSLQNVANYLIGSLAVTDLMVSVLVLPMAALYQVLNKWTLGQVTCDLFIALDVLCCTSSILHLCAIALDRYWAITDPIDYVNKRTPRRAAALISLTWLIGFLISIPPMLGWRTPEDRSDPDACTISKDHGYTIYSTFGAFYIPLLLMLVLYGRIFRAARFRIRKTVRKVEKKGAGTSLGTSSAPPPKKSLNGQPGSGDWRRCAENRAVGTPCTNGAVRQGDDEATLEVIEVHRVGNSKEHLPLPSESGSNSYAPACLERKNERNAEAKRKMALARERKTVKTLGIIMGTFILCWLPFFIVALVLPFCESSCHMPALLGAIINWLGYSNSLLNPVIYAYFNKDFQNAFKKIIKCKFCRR

[5] = molecular target: T2, 5-hydroxytryptamine receptor 2A; test: Displacement of [3H]-ketanserin from recombinant human 5-HT2A receptor after 60 mins by liquid scintillation counting method
[6] = molecular target: 5-hydroxytryptamine receptor 7 (Homo sapiens, UniProt P34969); test: Displacement of [3H]-LSD from recombinant human 5-HT7 receptor after 60 mins by liquid scintillation counting method
[7] = molecular target: T4, Adrenergic receptor alpha-2 (Rattus norvegicus, UniProt P22086+P19328+P22909); test: Displacement of [3H]clonidine from rat cerebral cortex adrenergic receptor alpha2 by liquid scintillation counting method
T4 sequence (P22086 whole entry): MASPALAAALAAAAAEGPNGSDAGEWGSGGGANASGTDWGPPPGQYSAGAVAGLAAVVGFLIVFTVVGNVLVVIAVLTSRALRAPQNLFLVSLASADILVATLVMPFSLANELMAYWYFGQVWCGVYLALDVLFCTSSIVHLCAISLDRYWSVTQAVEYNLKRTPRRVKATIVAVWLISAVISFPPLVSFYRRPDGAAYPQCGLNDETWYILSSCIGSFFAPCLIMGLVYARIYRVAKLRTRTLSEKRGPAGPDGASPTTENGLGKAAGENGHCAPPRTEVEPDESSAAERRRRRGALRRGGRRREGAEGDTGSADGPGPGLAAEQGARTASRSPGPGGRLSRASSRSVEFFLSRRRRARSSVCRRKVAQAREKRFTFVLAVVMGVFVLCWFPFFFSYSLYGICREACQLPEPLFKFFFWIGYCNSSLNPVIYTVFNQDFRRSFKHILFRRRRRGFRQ
T4 sequence (P19328 whole entry): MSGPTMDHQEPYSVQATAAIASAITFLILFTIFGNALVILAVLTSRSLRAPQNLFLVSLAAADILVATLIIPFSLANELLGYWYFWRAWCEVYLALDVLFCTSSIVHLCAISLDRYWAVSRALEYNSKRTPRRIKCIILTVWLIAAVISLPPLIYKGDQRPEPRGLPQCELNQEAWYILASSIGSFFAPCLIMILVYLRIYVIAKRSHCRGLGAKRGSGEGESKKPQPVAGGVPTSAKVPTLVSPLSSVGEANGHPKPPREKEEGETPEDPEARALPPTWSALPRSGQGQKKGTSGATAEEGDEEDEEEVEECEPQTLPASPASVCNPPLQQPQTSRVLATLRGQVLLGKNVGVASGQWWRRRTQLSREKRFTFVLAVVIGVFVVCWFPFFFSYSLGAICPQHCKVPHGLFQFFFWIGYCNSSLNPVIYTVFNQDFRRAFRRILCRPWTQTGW
T4 sequence (P22909 whole entry): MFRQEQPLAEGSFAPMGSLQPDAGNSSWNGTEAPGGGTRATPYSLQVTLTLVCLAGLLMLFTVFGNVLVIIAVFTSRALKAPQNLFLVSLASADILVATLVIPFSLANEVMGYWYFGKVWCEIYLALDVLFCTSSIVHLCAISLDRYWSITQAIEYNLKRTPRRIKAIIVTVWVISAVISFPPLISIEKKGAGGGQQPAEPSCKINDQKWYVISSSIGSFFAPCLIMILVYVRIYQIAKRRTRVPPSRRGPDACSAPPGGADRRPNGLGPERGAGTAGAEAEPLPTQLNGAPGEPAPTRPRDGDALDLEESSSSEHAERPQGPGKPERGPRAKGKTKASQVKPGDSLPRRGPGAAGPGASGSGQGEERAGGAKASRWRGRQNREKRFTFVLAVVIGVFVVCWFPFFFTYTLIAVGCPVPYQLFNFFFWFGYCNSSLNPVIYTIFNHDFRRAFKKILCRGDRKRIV

T2 sequence (P28223 whole entry): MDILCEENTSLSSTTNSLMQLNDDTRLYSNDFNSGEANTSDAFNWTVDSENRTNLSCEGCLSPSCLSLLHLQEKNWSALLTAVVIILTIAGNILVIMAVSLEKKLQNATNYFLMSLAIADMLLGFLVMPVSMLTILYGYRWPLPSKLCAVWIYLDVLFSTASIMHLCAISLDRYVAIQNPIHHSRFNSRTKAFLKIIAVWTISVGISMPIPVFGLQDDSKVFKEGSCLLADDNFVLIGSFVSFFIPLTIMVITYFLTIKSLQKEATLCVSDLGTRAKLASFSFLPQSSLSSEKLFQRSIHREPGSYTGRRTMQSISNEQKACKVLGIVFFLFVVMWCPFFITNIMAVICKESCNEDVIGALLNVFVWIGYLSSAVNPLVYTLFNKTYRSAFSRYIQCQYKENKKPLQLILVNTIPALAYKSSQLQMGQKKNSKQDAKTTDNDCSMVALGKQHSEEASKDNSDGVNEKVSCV
D(2) dopamine receptor, sequence (P14416 whole entry): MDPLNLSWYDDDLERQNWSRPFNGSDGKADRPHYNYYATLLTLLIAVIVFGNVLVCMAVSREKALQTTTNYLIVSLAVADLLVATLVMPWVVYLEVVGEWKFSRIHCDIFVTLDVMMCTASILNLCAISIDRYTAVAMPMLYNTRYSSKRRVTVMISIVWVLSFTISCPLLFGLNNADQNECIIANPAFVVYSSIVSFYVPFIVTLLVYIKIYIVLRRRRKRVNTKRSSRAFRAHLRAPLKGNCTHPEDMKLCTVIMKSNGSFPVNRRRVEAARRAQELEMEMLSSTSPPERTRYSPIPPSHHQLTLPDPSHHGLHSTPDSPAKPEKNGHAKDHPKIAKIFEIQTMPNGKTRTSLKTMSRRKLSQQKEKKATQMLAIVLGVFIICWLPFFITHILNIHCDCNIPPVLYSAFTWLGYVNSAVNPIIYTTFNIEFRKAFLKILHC
5-hydroxytryptamine receptor 7, sequence (P34969 whole entry): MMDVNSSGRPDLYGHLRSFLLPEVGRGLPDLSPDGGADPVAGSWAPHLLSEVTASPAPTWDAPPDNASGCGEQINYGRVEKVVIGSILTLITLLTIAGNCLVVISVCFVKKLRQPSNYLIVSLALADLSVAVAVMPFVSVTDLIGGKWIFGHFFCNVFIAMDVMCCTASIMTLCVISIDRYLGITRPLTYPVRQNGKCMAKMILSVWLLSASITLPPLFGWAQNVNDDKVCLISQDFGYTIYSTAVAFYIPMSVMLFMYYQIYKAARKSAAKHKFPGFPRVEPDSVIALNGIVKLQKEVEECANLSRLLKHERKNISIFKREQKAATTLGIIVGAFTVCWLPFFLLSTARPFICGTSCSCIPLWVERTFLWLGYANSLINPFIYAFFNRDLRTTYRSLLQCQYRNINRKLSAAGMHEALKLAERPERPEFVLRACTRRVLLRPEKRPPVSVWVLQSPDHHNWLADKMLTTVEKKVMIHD

| SMILES | Ki [1] [nM] | Ki [2] [nM] | Ki [3] [nM] | Ki [4] [nM] | Ki [5] [nM] | Ki [6] [nM] | Ki [7] [nM] |
| --- | --- | --- | --- | --- | --- | --- | --- |
| OCCOCCN1CCN(C(c2ccccc2)c2ccc(Cl)cc2)CC1 (configuration not stated) [HYDROXYZINE] | 300 | 50 | 378 | – | – | – | – |
| COc1ccccc1N1CCN(CCCOc2c(C)cccc2C)CC1.Cl | – | – | – | 0.7 | 192 | 26 | 341 |

From ChEMBL document CHEMBL4190389, “Synthesis and activity of di- or trisubstituted N-(phenoxyalkyl)- or N-{2-[2-(phenoxy)ethoxy]ethyl}piperazine derivatives on the central nervous system” (Bioorg Med Chem Lett, 2018)
